Results taken from patent US20230257365A1, “SMALL MOLECULE ANDROGEN RECEPTOR PROTEIN DEGRADERS” (THE REGENTS OF THE UNIVERSITY OF MICHIGAN, priority 2020, published 2023).

Target: T1, AR protein (Homo sapiens, UniProt P10275)
T1 construct: endogenous in cells; host or cells: VCaP
T1 sequence (P10275 1-920): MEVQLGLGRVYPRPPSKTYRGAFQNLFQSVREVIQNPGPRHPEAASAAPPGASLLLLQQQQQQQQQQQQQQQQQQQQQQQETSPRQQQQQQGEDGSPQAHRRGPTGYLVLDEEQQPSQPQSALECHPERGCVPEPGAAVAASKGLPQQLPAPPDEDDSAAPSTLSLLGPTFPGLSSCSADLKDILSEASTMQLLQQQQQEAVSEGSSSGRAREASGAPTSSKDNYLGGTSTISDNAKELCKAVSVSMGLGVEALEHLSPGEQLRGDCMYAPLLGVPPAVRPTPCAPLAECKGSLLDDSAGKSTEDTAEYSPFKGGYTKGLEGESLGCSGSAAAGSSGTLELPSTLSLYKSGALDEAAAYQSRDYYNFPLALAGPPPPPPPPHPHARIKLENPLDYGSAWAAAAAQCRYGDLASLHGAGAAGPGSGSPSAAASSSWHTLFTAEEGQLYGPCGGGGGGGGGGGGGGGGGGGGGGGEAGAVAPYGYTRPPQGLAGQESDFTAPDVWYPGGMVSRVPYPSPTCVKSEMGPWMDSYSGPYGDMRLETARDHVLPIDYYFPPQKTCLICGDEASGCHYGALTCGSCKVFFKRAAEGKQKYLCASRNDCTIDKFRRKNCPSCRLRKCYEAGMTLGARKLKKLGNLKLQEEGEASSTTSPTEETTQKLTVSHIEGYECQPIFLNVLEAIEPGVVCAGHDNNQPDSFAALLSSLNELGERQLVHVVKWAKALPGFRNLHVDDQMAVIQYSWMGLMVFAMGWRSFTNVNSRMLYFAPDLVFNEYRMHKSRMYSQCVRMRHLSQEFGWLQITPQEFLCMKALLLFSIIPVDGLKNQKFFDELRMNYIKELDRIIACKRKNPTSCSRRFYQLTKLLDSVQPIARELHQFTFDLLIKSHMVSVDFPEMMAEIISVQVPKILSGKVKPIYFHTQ
Test: AR protein degradation by western blotting in VCaP cells
Assay type: cell-based
Experimental: The appropriate cell line, e.g., prostate cancer LNCaP, Vcap, or MDA-MB-453, cell line, was treated with Compounds of the Disclosure. The treated cells were lysed with RIPA buffer. The AR level in the cell lysates was examined by western blotting and a specific AR antibody (ab 194196, Abeam, Cambridge, Mass. 02139) with concentration of 1:20,000. GAPDH was used as a loading control.
Bands were quantified with ImageJ software. The relative numbers of each band obtained from normalization with its corresponding GAPDH level were compared with Prism 8 software. The DC50 values were produced from Prism 8, and the DC90 values were calculated with an equation=Bottom+(Top−Bottom)/(1+10^((Log EC50−X)*HillSlope) based on DC50 and Hillslope values.
The amount of AR protein degradation in LNCap, VCap, and MDA-MB-453 cells caused representative Compounds of the Disclosure at the concentrations indicated is presented in Table 4.

Structure (SMILES): N#Cc1ccc(OC2CCN(C(=O)c3ccc(N4CCC(N5CCN(c6ccc7c(c6)C(=O)N(C6CCC(=O)NC6=O)C7=O)CC5)CC4)cc3)CC2)cc1Cl (stereo not drawn) [compound 336, 2-chloro-4-((1-(4-(4-(4-(2-(2,6-dioxopiperidin-3-yl)-1,3-dioxoisoindolin-5-yl)piperazin-1-yl)piperidin-1-yl)benzoyl)piperidin-4-yl)oxy)benzonitrile]
- % AR protein degradation in VCaP Cells (0.001 μM): 3%
- % AR protein degradation in VCaP Cells (0.01 μM): −5%
- % AR protein degradation in VCaP Cells (0.1 μM): −5%
- % AR protein degradation in VCaP Cells (1 μM): 4%

Structure (SMILES): N#Cc1ccc(OC2CCCN(C(=O)c3ccc(N4CCC(N5CCN(c6ccc7c(c6)C(=O)N(C6CCC(=O)NC6=O)C7=O)CC5)CC4)cc3)CC2)cc1Cl (stereo not drawn) [compound 337, 2-chloro-4-((1-(4-(4-(4-(2-(2,6-dioxopiperidin-3-yl)-1,3-dioxoisoindolin-5-yl)piperazin-1-yl)piperidin-1-yl)benzoyl)azepan-4-yl)oxy)benzonitrile]
- % AR protein degradation in VCaP Cells (0.001 μM): 18%
- % AR protein degradation in VCaP Cells (0.01 μM): 12%
- % AR protein degradation in VCaP Cells (0.1 μM): 9%
- % AR protein degradation in VCaP Cells (1 μM): 29%

Structure (SMILES): N#Cc1ccc(-c2ccn(Cc3ccc(C(=O)N4CCN(C5CCN(c6ccc7c(c6)C(=O)N(C6CCC(=O)NC6=O)C7=O)CC5)CC4)cc3)n2)cc1Cl (stereo not drawn) [compound 338, 2-chloro-4-(1-(4-(4-(1-(2-(2,6-dioxopiperidin-3-yl)-1,3-dioxoisoindolin-5-yl)piperidin-4-yl)piperazine-1-carbonyl)benzyl)-1H-pyrazol-3-yl)benzonitrile]
- % AR protein degradation in VCaP Cells (0.001 μM): −1%
- % AR protein degradation in VCaP Cells (0.01 μM): −12%
- % AR protein degradation in VCaP Cells (0.1 μM): 8%
- % AR protein degradation in VCaP Cells (1 μM): 93%
